Columns and labels:
lambsquarters [1] = test: Test C preemergence; format: in vivo, Chenopodium album; settings: preemergence
Outline: (§1)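 Scores of 0 (no effect) to 100 (complete control) were assigned by eye after 13–15 days, comparing treated pots with controls. Soil-applied (preemergence) treatments went onto seeds in loam and sand; foliar (postemergence) treatments onto 1- to 4-leaf plants in peat medium.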

blackgrass = test: Test C postemergence; format: in vivo, Alopecurus myosuroides
Outline: as §1

ryegrass, Italian = test: Test C postemergence; format: in vivo, Lolium multiflorum; settings: for Plant response rating, Ryegrass, Italian: postemergence
Outline: as §1

wheat = test: Test C postemergence; format: in vivo, Triticum aestivum
Outline: as §1

galium = test: Test C postemergence; format: in vivo, Galium aparine
Outline: as §1

corn = test: Test C postemergence; format: in vivo, Zea mays
Outline: as §1

foxtail, giant = test: Test C postemergence; format: in vivo, Setaria faberii
Outline: as §1

johnsongrass = test: Test C postemergence; format: in vivo, Sorghum halepense
Outline: as §1

lambsquarters [2] = test: Test C postemergence; format: in vivo, Chenopodium album
Outline: as §1

morningglory = test: Test C postemergence; format: in vivo, Ipomoea coccinea
Outline: as §1

nutsedge, yellow = test: Test C postemergence; format: in vivo, Cyperus esculentus
Outline: as §1

pigweed = test: Test C postemergence; format: in vivo, Amaranthus retroflexus
Outline: as §1

soybean = test: Test C postemergence; format: in vivo, Glycine max
Outline: as §1

oilseed rape = test: Test C postemergence; format: in vivo, Brassica napus
Outline: as §1

waterhemp = test: Test C postemergence; format: in vivo, Amaranthus rudis
Outline: as §1

kochia = test: Test C postemergence; format: in vivo, Kochia scoparia
Outline: as §1

velvetleaf = test: Test C postemergence; format: in vivo, Abutilon theophrasti
Outline: as §1

chickweed = test: Test C postemergence; format: in vivo, Stellaria media
Outline: as §1

[3] = Postemergence, 31 g ai/ha, visually evaluated after 13 to 15 days
[4] = postemergence, 62 g ai/ha, scale 0 to 100
[5] = postemergence, 250 g ai/ha, scale 0 to 100 (0 no effect, 100 complete control)
[6] = postemergence, 125 g ai/ha, scale 0 to 100, 0 no effect, 100 complete control

SMILES: CCc1cc(C(=O)NC(C)C)nn1Cc1ccnc(C(F)(F)F)c1 [Compound 139]
- Lambsquarters plant response rating (lambsquarters [1]; 31 g ai/ha, visual rating, scale 0 to 100 (0 no effect, 100 complete control), 13 to 15 days): 35
- Lambsquarters plant response rating (lambsquarters [1]; 62 g ai/ha, scale 0 to 100 (0 no effect, 100 complete control), 13 to 15 days): 85
- Plant response rating, Lambsquarters (lambsquarters [1]; 125 g ai/ha, 13 to 15 days, scale 0 to 100, 0 = no effect, 100 = complete control): 100
- Lambsquarters plant response rating (lambsquarters [1]; 250 g ai/ha, scale 0 to 100, 0 is no effect, 100 is complete control): 100
- Plant response rating (scale of 0 to 100 where 0 is no effect and 100 is complete control), Blackgrass (blackgrass; [3]): 20
- Blackgrass plant response rating (blackgrass; [4]): 20
- Plant response rating, Blackgrass (blackgrass; [5]): 35
- Plant response rating, Blackgrass (blackgrass; [6]): 20
- Plant response rating (scale of 0 to 100 where 0 is no effect and 100 is complete control), Ryegrass, Italian (ryegrass, Italian; [3]): 0
- Plant response rating, Ryegrass, Italian (ryegrass, Italian; 250 g ai/ha, scale 0 to 100 (0 no effect, 100 complete control)): 5
- Plant response rating, Ryegrass, Italian (ryegrass, Italian; 125 g ai/ha, scale 0 to 100, 0 no effect, 100 complete control): 10
- Plant response rating (scale of 0 to 100 where 0 is no effect and 100 is complete control), Wheat (wheat; [3]): 5
- Plant response rating, Wheat (wheat; [5]): 25
- Wheat plant response rating (wheat; postemergence, scale 0 to 100): 5
- Plant response rating (scale of 0 to 100 where 0 is no effect and 100 is complete control), Galium (galium; [3]): 50
- Galium plant response rating (galium; [4]): 60
- Plant response rating, Galium (galium; [5]): 70
- Plant response rating, Galium (galium; [6]): 60
- Plant response rating (scale of 0 to 100 where 0 is no effect and 100 is complete control), Corn (corn; [3]): 5
- Corn plant response rating (corn; [4]): 10
- Plant response rating, Corn (corn; [5]): 20
- Plant response rating, Corn (corn; [6]): 15
- Plant response rating (scale of 0 to 100 where 0 is no effect and 100 is complete control), Foxtail, Giant (foxtail, giant; [3]): 5
- Foxtail, Giant plant response rating (foxtail, giant; [4]): 5
- Plant response rating, Foxtail, Giant (foxtail, giant; [5]): 65
- Plant response rating, Foxtail, Giant (foxtail, giant; [6]): 10
- Plant response rating (scale of 0 to 100 where 0 is no effect and 100 is complete control), Johnsongrass (johnsongrass; [3]): 5
- Johnsongrass plant response rating (johnsongrass; [4]): 5
- Plant response rating, Johnsongrass (johnsongrass; [5]): 20
- Plant response rating, Johnsongrass (johnsongrass; [6]): 10
- Plant response rating (scale of 0 to 100 where 0 is no effect and 100 is complete control), Lambsquarters (lambsquarters [2]; [3]): 40
- Lambsquarters plant response rating (lambsquarters [2]; [4]): 55
- Plant response rating, Lambsquarters (lambsquarters [2]; [5]): 85
- Plant response rating, Lambsquarters (lambsquarters [2]; [6]): 70
- Plant response rating (scale of 0 to 100 where 0 is no effect and 100 is complete control), Morningglory (morningglory; [3]): 60
- Morningglory plant response rating (morningglory; [4]): 60
- Plant response rating, Morningglory (morningglory; [5]): 80
- Plant response rating, Morningglory (morningglory; [6]): 90
- Plant response rating (scale of 0 to 100 where 0 is no effect and 100 is complete control), Nutsedge, Yellow (nutsedge, yellow; [3]): 5
- Nutsedge, Yellow plant response rating (nutsedge, yellow; [4]): 5
- Plant response rating, Nutsedge, Yellow (nutsedge, yellow; [5]): 5
- Plant response rating, Nutsedge, Yellow (nutsedge, yellow; [6]): 5
- Plant response rating (scale of 0 to 100 where 0 is no effect and 100 is complete control), Pigweed (pigweed; [3]): 30
- Pigweed plant response rating (pigweed; [4]): 40
- Plant response rating, Pigweed (pigweed; [5]): 60
- Plant response rating, Pigweed (pigweed; [6]): 40
- Plant response rating (scale of 0 to 100 where 0 is no effect and 100 is complete control), Soybean (soybean; [3]): 15
- Plant response rating, Soybean (soybean; [5]): 85
- Soybean plant response rating (soybean; [6]): 55
- Plant response rating (scale of 0 to 100 where 0 is no effect and 100 is complete control), Oilseed Rape (oilseed rape; [3]): 20
- Oilseed Rape plant response rating (oilseed rape; [4]): 45
- Plant response rating, Oilseed Rape (oilseed rape; [5]): 50
- Plant response rating, Oilseed Rape (oilseed rape; [6]): 50
- Plant response rating (scale of 0 to 100 where 0 is no effect and 100 is complete control), Waterhemp (waterhemp; [3]): 30
- Plant response rating, Waterhemp (waterhemp; [5]): 65
- Waterhemp plant response rating (waterhemp; postemergence, scale 0 to 100): 55
- Plant response rating (scale of 0 to 100 where 0 is no effect and 100 is complete control), Kochia (kochia; [3]): 60
- Kochia plant response rating (kochia; [4]): 75
- Plant response rating, Kochia (kochia; [5]): 85
- Plant response rating, Kochia (kochia; [6]): 85
- Plant response rating (scale of 0 to 100 where 0 is no effect and 100 is complete control), Velvetleaf (velvetleaf; [3]): 10
- Plant response rating, Velvetleaf (velvetleaf; [5]): 25
- Velvetleaf plant response rating (velvetleaf; postemergence, scale 0 to 100): 15
- Plant response rating (scale of 0 to 100 where 0 is no effect and 100 is complete control), Chickweed (chickweed; [3]): 60
- Chickweed plant response rating (chickweed; [4]): 60
- Plant response rating, Chickweed (chickweed; [5]): 80
- Plant response rating, Chickweed (chickweed; [6]): 65
